# According to patent publication US12123028B2, “Viral inactivation methods for continuous manufacturing of antibodies” (Bayer HealthCare LLC, priority 2018, dated 2024):
# Entries after “also recorded” stand apart in the source; their conditions may differ.
# Tests used:
# X-MuLV = X-MuLV inactivation by detergent in neutralized mAb protein A eluate, remaining infectivity by TCID50 assay on PG-4 cells; format: cell-based, Xenotropic Murine Leukemia Virus; settings: 16° C.
# Method: The pH of various protein A eluates was adjusted to 7.0 with 1M Tris buffer. The pH adjusted eluate was then filtered through a 0.22 um filter. Various volumes of 5% stock solution of Mega-10, Tween 20, or Tween 80 were added to the filtered neutralized protein A eluates. This was done to prepare protein A eluates containing various concentrations of each detergent. X-MuLV was then spiked at a 1:20 ratio to the neutralized protein A eluate containing various concentrations of each detergent that had been pre-incubated at a 16° C. water bath prior to the virus spiking. After a thorough mixing, an aliquot of a sample was removed immediately and quenched with a diluent (McCoy's medium containing 3 μg/mL of polybrene) at 1:12 for Mega-10 or at 1:100 for Tween 20 and Tween 80 to stop the inactivation, and the sample was designated as a time-zero sample. The remaining spiked eluate was returned to the water bath and the samples were collected at the indicated time to evaluate the viral inactivation kinetics.
# The remaining X-MuLV infectivity in the samples post-inactivation treatment was determined by a TCID50 assay that is an endpoint dilution assay to quantify the amount of virus required to produce a cytopathic effect in 50% of inoculated tissue culture cells. Virus titers were estimated using the Spearman-Karber method and reported as TCID50/mL with a calculated 95% confidence interval (CI). Briefly, a sufficient number of 96-well plates with PG-4 (feline S^+L^−, ATCC#CRL-2032) cells were prepared the day before starting the viral inactivation experiments and incubated overnight in a 37° C. humidified CO2 incubator. A set of ten 3.2 fold dilution of the diluted positive control (1:100) and viral inactivated samples were prepared in a dilution block. Each set of the 11 serial dilutions of the samples were inoculated correspondingly onto wells (100 μL per well) of the first 11 columns in a 96-well plate that had been pre-seeded with PG-4 cells. The 12th column in the same plate was inoculated with the corresponding diluent to serve as non-virus negative control. The positive control was prepared by spiking the filtered neutralized protein A eluate with X-MuLV at a 1:20 ratio. The inoculated plates were then incubated in a 37° C. humidified CO2 incubator for approximate 2 hours. A volume of 100 uL of 2× assay medium (92% McCoy's 5A medium, 4% FBS, 2% Penicillin/Streptomycin, 2% L-Glutamine) was added to each well of the plates at the end of incubation. The plates were then returned to the same incubator, and continued incubation for 6 days. Each well of the plates were scored under a microscope for the presence of cytopathic effect (CPE) and the results were recorded in a scoring sheet. Virus titers were then estimated using the Spearman-Karber method and reported as TCID50/mL with a calculated 95% confidence interval (CI).
# To evaluate robustness of X-MuLV inactivation by Mega-10 in Protein A eluates of mAb1, X-MuLV was spiked at a 1:20 ratio into the neutralized mAb1 protein A eluate contain 0.1%, 0.2% and 0.3% of Mega-10. After a thorough mixing, an aliquot of sample was removed at 0, 2.5, 5, 10, and 30 minutes after incubation at 16° C. The remaining virus titer in the collected samples was determined by the TCID50 assay.
# aquatic environment = settings: cited from earlier work
# [1] = 0.1% Mega-10, neutralized mAb1 protein A eluate pH 7.01, incubation 0 minutes
# [2] = 0.1% Mega-10, neutralized mAb1 protein A eluate pH 7.01, incubation 2.5 minutes
# [3] = 0.1% Mega-10, neutralized mAb1 protein A eluate pH 7.01, incubation 5.0 minutes
# [4] = 0.1% Mega-10, neutralized mAb1 protein A eluate pH 7.01, incubation 10 minutes
# [5] = 0.1% Mega-10, neutralized mAb1 protein A eluate pH 7.01, incubation 30 minutes
# [6] = 0.1% Mega-10, neutralized mAb2 protein A eluate pH 7.01, incubation 0 minutes
# [7] = 0.1% Mega-10, neutralized mAb2 protein A eluate pH 7.01, incubation 2.5 minutes
# [8] = 0.1% Mega-10, neutralized mAb2 protein A eluate pH 7.01, incubation 5.0 minutes
# [9] = 0.1% Mega-10, neutralized mAb2 protein A eluate pH 7.01, incubation 10 minutes
# [10] = 0.1% Mega-10, neutralized mAb2 protein A eluate pH 7.01, incubation 30 minutes
# [11] = 0.2% Mega-10, neutralized mAb1 protein A eluate pH 7.01, incubation 0 minutes
# [12] = 0.2% Mega-10, neutralized mAb1 protein A eluate pH 7.01, incubation 5.0 minutes
# [13] = 0.2% Mega-10, neutralized mAb1 protein A eluate pH 7.01, incubation 10 minutes
# [14] = 0.2% Mega-10, neutralized mAb1 protein A eluate pH 7.01, incubation 30 minutes
# [15] = 0.2% Mega-10, neutralized mAb2 protein A eluate pH 7.01, incubation 0 minutes
# [16] = 0.2% Mega-10, neutralized mAb2 protein A eluate pH 7.01, incubation 2.5 minutes
# [17] = 0.2% Mega-10, neutralized mAb2 protein A eluate pH 7.01, incubation 5.0 minutes
# [18] = 0.2% Mega-10, neutralized mAb2 protein A eluate pH 7.01, incubation 10 minutes
# [19] = 0.3% Mega-10, neutralized mAb1 protein A eluate pH 7.01, incubation 0 minutes
# [20] = 0.3% Mega-10, neutralized mAb1 protein A eluate pH 7.01, incubation 5.0 minutes
# [21] = 0.3% Mega-10, neutralized mAb1 protein A eluate pH 7.01, incubation 10 minutes
# [22] = 0.3% Mega-10, neutralized mAb1 protein A eluate pH 7.01, incubation 30 minutes
# [23] = 0.3% Mega-10, neutralized mAb2 protein A eluate pH 7.01, incubation 0 minutes
# [24] = 0.3% Mega-10, neutralized mAb2 protein A eluate pH 7.01, incubation 5.0 minutes
# [25] = 0.3% Mega-10, neutralized mAb2 protein A eluate pH 7.01, incubation 10 minutes
# [26] = 0.3% Mega-10, neutralized mAb2 protein A eluate pH 7.01, incubation 30 minutes
smiles,measurement,setting,value
"CCCCCCCCCC(=O)N(C)C[C@H](O)[C@@H](O)[C@H](O)[C@H](O)CO [Mega-10, N-Methylglucamide]",LRF ± 95% CL,"X-MuLV; 0.10% Mega 10 alone, neutralized mAb1 protein A eluate, 0 minutes (Table 2)",0.33 ± 0.35
same,LRF ± 95% CL,"X-MuLV; 0.10% Mega 10 alone, neutralized mAb1 protein A eluate, 2.5 minutes (Table 2)",0.33±0.29
same,LRF ± 95% CL,"X-MuLV; 0.10% Mega 10 alone, neutralized mAb1 protein A eluate, 2.5 minutes (Table 2), listed as Mega 10",0.33 ± 0.29
same,LRF ± 95% CL,"X-MuLV; 0.10% Mega 10 alone, neutralized mAb1 protein A eluate, 5 minutes (Table 2)",0.33 ± 0.32
same,LRF ± 95% CL,"X-MuLV; 0.10% Mega 10 alone, neutralized mAb1 protein A eluate, 10 minutes (Table 2)",0.39 ± 0.36
same,LRF ± 95% CL,"X-MuLV; 0.10% Mega 10 alone, neutralized mAb1 protein A eluate, 30 minutes (Table 2)",0.64 ± 0.33
same,LRF ± 95% CL,X-MuLV; [1],0.26 ± 0.28
same,Log10 TCID50/mL,X-MuLV; [1],6.53 ± 0.20 Log10 TCID50/mL
same,LRF ± 95% CL,X-MuLV; [2],0.38 ± 0.32
same,Log10 TCID50/mL,X-MuLV; [2],6.41 ± 0.26 Log10 TCID50/mL
same,LRF ± 95% CL,X-MuLV; [3],0.38 ± 0.28
same,Log10 TCID50/mL,X-MuLV; [3],6.41 ± 0.21 Log10 TCID50/mL
same,LRF ± 95% CL,X-MuLV; [4],0.38 ± 0.28
same,Log10 TCID50/mL,X-MuLV; [4],6.41 ± 0.20 Log10 TCID50/mL
same,LRF ± 95% CL,X-MuLV; [5],0.38 ± 0.23
same,Log10 TCID50/mL,X-MuLV; [5],6.41 ± 0.12 Log10 TCID50/mL
same,LRF ± 95% CL,X-MuLV; [6],0.36 ± 0.28
same,Log10 TCID50/mL,X-MuLV; [6],6.56 ± 0.22 Log10 TCID50/mL
same,LRF ± 95% CL,X-MuLV; [7],0.36 ± 0.28
same,Log10 TCID50/mL,X-MuLV; [7],6.56 ± 0.22 Log10 TCID50/mL
same,LRF ± 95% CL,X-MuLV; [8],0.36 ± 0.25
same,Log10 TCID50/mL,X-MuLV; [8],6.56 ± 0.18 Log10 TCID50/mL
same,LRF ± 95% CL,X-MuLV; [9],0.29 ± 0.26
same,Log10 TCID50/mL,X-MuLV; [9],6.63 ± 0.19 Log10 TCID50/mL
same,LRF ± 95% CL,X-MuLV; [10],0.36 ± 0.28
same,Log10 TCID50/mL,X-MuLV; [10],6.56 ± 0.22 Log10 TCID50/mL
same,LRF ± 95% CL,"X-MuLV; 0.15% Mega 10 alone, neutralized mAb2 protein A eluate, 0 minutes (Table 3)",0.99 ± 0.30
same,LRF ± 95% CL,"X-MuLV; 0.15% Mega 10 alone, neutralized mAb2 protein A eluate, 2.5 minutes (Table 3)",1.62 ± 0.30
same,LRF ± 95% CL,"X-MuLV; 0.15% Mega 10 alone, neutralized mAb2 protein A eluate, 5 minutes (Table 3)",1.68±0.31
same,LRF ± 95% CL,"X-MuLV; 0.15% Mega 10 alone, neutralized mAb2 protein A eluate, 5 minutes (Table 3), listed as Mega 10",1.68 ± 0.31
same,LRF ± 95% CL,"X-MuLV; 0.15% Mega 10 alone, neutralized mAb2 protein A eluate, 10 minutes (Table 3)",1.94 ± 0.32
same,LRF ± 95% CL,"X-MuLV; 0.15% Mega 10 alone, neutralized mAb2 protein A eluate, 30 minutes (Table 3)",1.94 ± 0.32
same,LRF ± 95% CL,X-MuLV; [11],2.91 ± 0.32
same,Log10 TCID50/mL,X-MuLV; [11],3.88 ± 0.25 Log10 TCID50/mL
same,Log10 TCID50/mL,"X-MuLV; 0.2% Mega-10, neutralized mAb1 protein A eluate pH 7.01, incubation 2.5 minutes",≤1.21 Log10 TCID50/mL
same,LRF ± 95% CL,X-MuLV; [12],≥5.58 ± 0.19
same,Log10 TCID50/mL,X-MuLV; [12],≤1.21 Log10 TCID50/mL
same,LRF ± 95% CL,X-MuLV; [13],≥5.58 ± 0.19
same,Log10 TCID50/mL,X-MuLV; [13],≤1.21 Log10 TCID50/mL
same,LRF ± 95% CL,X-MuLV; [14],≥5.58 ± 0.19
same,Log10 TCID50/mL,X-MuLV; [14],≤1.21 Log10 TCID50/mL
same,treatment time to inactivate X-MuLV to the level below the detection limit,"X-MuLV; 0.2% Mega-10, neutralized mAb1 protein A eluate",2.5 min
same,LRF ± 95% CL,X-MuLV; [15],4.73 ± 0.46
same,Log10 TCID50/mL,X-MuLV; [15],2.19 ± 0.43 Log10 TCID50/mL
same,LRF ± 95% CL,X-MuLV; [16],5.31±0.75
same,Log10 TCID50/mL,X-MuLV; [16],1.61 ± 0.73 Log10 TCID50/mL
same,LRF ± 95% CL,X-MuLV; [17],5.31 ± 0.75
same,Log10 TCID50/mL,X-MuLV; [17],1.61 ± 0.73 Log10 TCID50/mL
same,LRF ± 95% CL,X-MuLV; [18],5.50 ± 0.90
same,Log10 TCID50/mL,X-MuLV; [18],1.42 ± 0.88 Log10 TCID50/mL
same,Log10 TCID50/mL,"X-MuLV; 0.2% Mega-10, neutralized mAb2 protein A eluate pH 7.01, incubation 30 minutes",≤1.11 ± 0.27 Log10 TCID50/mL
same,LRF ± 95% CL,X-MuLV; [19],3.79 ± 0.33
same,Log10 TCID50/mL,X-MuLV; [19],3.00 ± 0.27 Log10 TCID50/mL
same,Log10 TCID50/mL,"X-MuLV; 0.3% Mega-10, neutralized mAb1 protein A eluate pH 7.01, incubation 2.5 minutes",≤1.21 Log10 TCID50/mL
same,LRF ± 95% CL,X-MuLV; [20],≥5.58 ± 0.19
same,Log10 TCID50/mL,X-MuLV; [20],≤1.21 Log10 TCID50/mL
same,LRF ± 95% CL,X-MuLV; [21],≥5.58 ± 0.19
same,Log10 TCID50/mL,X-MuLV; [21],≤1.21 Log10 TCID50/mL
same,LRF ± 95% CL,X-MuLV; [22],≥5.58 ± 0.19
same,Log10 TCID50/mL,X-MuLV; [22],≤1.21 Log10 TCID50/mL
same,treatment time to inactivate X-MuLV to the level below the detection limit,"X-MuLV; 0.3% Mega-10, neutralized mAb1 protein A eluate",2.5 min
same,LRF ± 95% CL,X-MuLV; [23],4.73 ± 0.46
same,Log10 TCID50/mL,X-MuLV; [23],2.19 ± 0.43 Log10 TCID50/mL
same,Log10 TCID50/mL,"X-MuLV; 0.3% Mega-10, neutralized mAb2 protein A eluate pH 7.01, incubation 2.5 minutes",≤1.11 Log10 TCID50/mL
same,LRF ± 95% CL,X-MuLV; [24],≥5.81 ± 0.18
same,Log10 TCID50/mL,X-MuLV; [24],≤1.11 Log10 TCID50/mL
same,LRF ± 95% CL,X-MuLV; [25],≥5.81 ± 0.18
same,Log10 TCID50/mL,X-MuLV; [25],≤1.11 Log10 TCID50/mL
same,LRF ± 95% CL,X-MuLV; [26],≥5.81 ± 0.18
same,Log10 TCID50/mL,X-MuLV; [26],≤1.11 Log10 TCID50/mL
same,treatment time to inactivate X-MuLV to the level below detection,"X-MuLV; 0.3% Mega-10, neutralized mAb2 protein A eluate",2.5 min
same,toxicity to the aquatic environment,aquatic environment,without toxicity to the aquatic environment; also recorded: no toxicity to the aquatic environment
